Reference: patent US7387798B2, “Method and composition for resuscitation” (priority 2004, dated 2008)
Entries after “also recorded” stand apart in the source; their conditions may differ.

Test system: not listed separately
Test: Neural protective effect of colloid osmotic agents and Polypeptides (stated, no method given)
Settings: general statement, no experiment described

Compound	protecting the CNS tissue (neural protective effect)
Collagen	effective
Dextran	ineffective; also recorded: do not confer neuroprotective effect
Hetastarch	ineffective
albumin	effective

Test system: cultured neurons
Test: not given
Settings: continuous application, 100 μM; cited from earlier work

Compound	axonal transport of membrane-bound organelles in anterograde and retrograde directions
Nc1ncnc2c1ncn2[C@@H]1O[C@H](COP(=O)(O)OP(=O)(O)OP(=O)(O)O)[C@@H](O)[C@H]1O [ATP, Adenosine 5′-triphosphate]	significantly increased
O=c1ccn([C@@H]2O[C@H](COP(=O)(O)OP(=O)(O)OP(=O)(O)O)[C@@H](O)[C@H]2O)c(=O)[nH]1 [Uridine 5′-triphosphate]	effect similar to ATP
